Test results as given in patent US20260137697A1, “THIAZOLO[5,4-D]PYRIMIDINE COMPOUNDS, COMPOSITIONS COMPRISING THEM AND USES THEREOF” (University de Montreal, priority 2022, published 2026).

Legend:
CRAF = target: T1, CRAF (Homo sapiens, UniProt P04049); assay: CRAF kinase activity assay (ADP-Glo); assay type: biochemical; details: Table 3; 10 μM ATP, kinase-dead MEK1 substrate
T1 construct: fused on or other part: GST tag (N-terminal according to the vendor's product)
How it was run: (§1)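 ADP-Glo luminescence read after 2 h reactions at 30° C containing 0.375 nM GST-kinase, kinase-dead MEK1 (75 nM), ATP at 10 μM, pH 7.5 HEPES/MgCl2/DTT, 0.05% DMSO. Compounds dosed from 100 to 0.01 nM (nine points); IC50 from variable-slope fit of % inhibition.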

pERK, HCT116 cells = assay: Phospho-ERK inhibition, AlphaLISA p-ERK 1/2, HCT-116; assay type: cell-based, human; details: Table 3; for IC50: HCT116 cells (KRAS G13D), 1 h treatment; for HCT116 pERK (Ymin %): lowest % inhibition value of the pERK IC50 curve, above −20% = no paradoxical induction
How it was run: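 Cells in RPMI-1640 with 5% FBS plated overnight, then treated 1 h with ten-point dilutions (10 μM to 0.33 nM, 0.5% DMSO). Lysate p-ERK1/2 (Thr202/Tyr204) read by AlphaLISA SureFire Ultra; % inhibition normalised to DMSO and 1 μM trametinib background, IC50 by four-parameter fit.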

BRAF = target: T2, BRAF (Homo sapiens, UniProt P15056); assay: BRAF kinase activity assay (ADP-Glo); assay type: biochemical; details: Table 3; 10 μM ATP, kinase-dead MEK1 substrate
T2 construct: GST; purchased Millipore Sigma B4062-10UG
T2 sequence (P15056 whole entry): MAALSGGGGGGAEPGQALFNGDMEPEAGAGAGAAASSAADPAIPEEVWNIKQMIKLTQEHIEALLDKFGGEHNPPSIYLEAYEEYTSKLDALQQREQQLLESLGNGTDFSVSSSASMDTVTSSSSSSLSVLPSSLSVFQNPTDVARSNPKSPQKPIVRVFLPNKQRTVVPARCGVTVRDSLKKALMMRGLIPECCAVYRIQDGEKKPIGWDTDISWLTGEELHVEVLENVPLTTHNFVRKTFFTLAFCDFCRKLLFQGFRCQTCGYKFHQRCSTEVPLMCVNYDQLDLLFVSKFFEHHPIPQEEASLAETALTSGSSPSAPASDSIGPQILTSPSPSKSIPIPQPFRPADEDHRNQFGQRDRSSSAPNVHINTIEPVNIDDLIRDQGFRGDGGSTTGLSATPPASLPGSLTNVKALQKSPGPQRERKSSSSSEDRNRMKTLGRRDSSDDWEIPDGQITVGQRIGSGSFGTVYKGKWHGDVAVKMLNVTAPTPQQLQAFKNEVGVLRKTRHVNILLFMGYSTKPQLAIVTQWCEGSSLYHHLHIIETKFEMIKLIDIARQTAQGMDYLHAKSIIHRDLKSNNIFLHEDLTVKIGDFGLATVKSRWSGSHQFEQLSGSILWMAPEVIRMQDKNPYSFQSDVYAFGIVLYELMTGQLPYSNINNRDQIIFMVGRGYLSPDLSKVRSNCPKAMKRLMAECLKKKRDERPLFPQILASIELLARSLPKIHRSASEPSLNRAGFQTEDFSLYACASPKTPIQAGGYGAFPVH
How it was run: as §1

T1 sequence (P04049 whole entry Y340E/Y341E, form open, the tested form may be a part): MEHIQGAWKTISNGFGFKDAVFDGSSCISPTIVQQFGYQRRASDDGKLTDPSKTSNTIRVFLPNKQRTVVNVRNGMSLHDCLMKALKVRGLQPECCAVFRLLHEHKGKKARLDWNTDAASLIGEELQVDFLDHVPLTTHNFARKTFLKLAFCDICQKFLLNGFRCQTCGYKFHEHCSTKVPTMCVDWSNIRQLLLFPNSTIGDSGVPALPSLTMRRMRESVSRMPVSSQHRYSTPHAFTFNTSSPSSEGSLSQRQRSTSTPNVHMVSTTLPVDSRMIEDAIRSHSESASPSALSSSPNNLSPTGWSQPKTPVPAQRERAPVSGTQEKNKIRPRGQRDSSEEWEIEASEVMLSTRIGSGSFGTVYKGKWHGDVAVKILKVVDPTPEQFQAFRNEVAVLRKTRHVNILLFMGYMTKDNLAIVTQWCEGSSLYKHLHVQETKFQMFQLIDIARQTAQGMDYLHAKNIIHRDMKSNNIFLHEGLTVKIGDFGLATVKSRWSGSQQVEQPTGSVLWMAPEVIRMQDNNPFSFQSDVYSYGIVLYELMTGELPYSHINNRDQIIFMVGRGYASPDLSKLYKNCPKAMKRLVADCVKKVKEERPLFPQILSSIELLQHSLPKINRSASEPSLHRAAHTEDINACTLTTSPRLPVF

SMILES	IC50 (CRAF)	IC50 (pERK, HCT116 cells)	IC50 (BRAF)	IC50 (pERK, HCT116 cells; Homo sapiens, HCT-116)	HCT116 pERK (Ymin %) (pERK, HCT116 cells)
N#CCC1CN(C(=O)c2cn(-c3nc4c(Nc5c(F)ccc(NS(=O)(=O)c6cccc(Cl)c6Cl)c5F)ncnc4s3)c3ccccc23)C1 [Example 60]	< 10 nM	< 500 nM	< 1 nM	–	−2%
COCCNS(=O)(=O)c1cn(-c2nc3c(Nc4c(F)ccc(NS(=O)(=O)c5cccc(Cl)c5Cl)c4F)ncnc3s2)c2ccccc12 [Example 62]	< 10 nM	< 500 nM	1 to 10 nM	–	2%
O=S(=O)(Nc1ccc(F)c(Nc2ncnc3sc(-n4cc(S(=O)(=O)C5CCCC5)c5ccccc54)nc23)c1F)c1cccc(Cl)c1Cl [Example 64]	> 50 nM	< 500 nM	1 to 10 nM	–	−4%
CN(C1CCOC1)S(=O)(=O)c1cn(-c2nc3c(Nc4c(F)ccc(NS(=O)(=O)c5cccc(Cl)c5Cl)c4F)ncnc3s2)c2ccccc12 (stereo not drawn) [Example 66]	10 to 50 nM	< 500 nM	1 to 10 nM	–	−13%
CN1CC2CCC(C1)N2S(=O)(=O)c1cn(-c2nc3c(Nc4c(F)ccc(NS(=O)(=O)c5cccc(Cl)c5Cl)c4F)ncnc3s2)c2ccccc12 [Example 68]	10 to 50 nM	< 500 nM	1 to 10 nM	–	−6%
CC1COCCN1S(=O)(=O)c1cn(-c2nc3c(Nc4c(F)ccc(NS(=O)(=O)c5cccc(Cl)c5Cl)c4F)ncnc3s2)c2ccccc12 (stereo not drawn) [Example 69]	10 to 50 nM	500 to 1000 nM	> 10 nM	–	−7%
CCN(CCOC)S(=O)(=O)c1cn(-c2nc3c(Nc4c(F)ccc(NS(=O)(=O)c5cccc(Cl)c5Cl)c4F)ncnc3s2)c2ccccc12 [Example 70]	10 to 50 nM	–	> 10 nM	500 to 1000 nM	–
O=S(=O)(Nc1ccc(F)c(Nc2ncnc3sc(-n4cnc5c(F)cc(F)cc54)nc23)c1F)c1cccc(Cl)c1Cl [Example 71]	< 10 nM	–	1 to 10 nM	< 500 nM	–
CS(=O)(=O)c1cn(-c2nc3c(Nc4c(F)ccc(NS(=O)(=O)c5cccc(Cl)c5Cl)c4F)ncnc3s2)c2ccccc12 [Example 72]	< 10 nM	–	1 to 10 nM	500 to 1000 nM	–
CC(C)S(=O)(=O)c1cn(-c2nc3c(Nc4c(F)ccc(NS(=O)(=O)c5cccc(Cl)c5Cl)c4F)ncnc3s2)c2ccccc12 [Example 73]	> 50 nM	< 500 nM	1 to 10 nM	–	−12%
O=S(=O)(Nc1ccc(F)c(Nc2ncnc3sc(-n4cc(S(=O)(=O)N5CC(CO)C5)c5ccccc54)nc23)c1F)c1cccc(Cl)c1Cl [Example 74]	< 10 nM	1000 to 10000 nM	1 to 10 nM	–	−9%
CN(CC(F)F)S(=O)(=O)c1cn(-c2nc3c(Nc4c(F)ccc(NS(=O)(=O)c5cccc(Cl)c5Cl)c4F)ncnc3s2)c2ccccc12 [Example 75]	10 to 50 nM	1000 to 10000 nM	> 10 nM	–	−5%
O=S(=O)(Nc1ccc(F)c(Nc2ncnc3sc(-n4cc(S(=O)(=O)N5CC(C(F)F)C5)c5ccccc54)nc23)c1F)c1cccc(Cl)c1Cl [Example 76]	10 to 50 nM	1000 to 10000 nM	> 10 nM	–	−10%
C[C@]1(CO)CCCN1C(=O)c1cn(-c2nc3c(Nc4c(F)ccc(NS(=O)(=O)c5cccc(Cl)c5Cl)c4F)ncnc3s2)c2ccccc12 [Example 78]	10 to 50 nM	500 to 1000 nM	1 to 10 nM	–	−14%
O=S(=O)(Nc1ccc(F)c(Nc2ncnc3sc(-n4cnc5c(F)c(OCCO)ccc54)nc23)c1F)c1cccc(Cl)c1Cl [Example 80]	< 10 nM	–	1 to 10 nM	1000 to 10000 nM	–
O=C(c1cn(-c2nc3c(Nc4c(F)ccc(NS(=O)(=O)c5cccc(Cl)c5Cl)c4F)ncnc3s2)c2ccc(Cl)cc12)N1C2CCC1COC2 [Example 81]	10 to 50 nM	500 to 1000 nM	1 to 10 nM	–	−8%
C[C@@H]1CN(S(=O)(=O)c2cn(-c3nc4c(Nc5c(F)ccc(NS(=O)(=O)c6cccc(Cl)c6Cl)c5F)ncnc4s3)c3ccccc23)C[C@H](C)N1 [Example 82]	10 to 50 nM	500 to 1000 nM	1 to 10 nM	–	−13%
CN(CCN1CCOCC1)S(=O)(=O)c1cn(-c2nc3c(Nc4c(F)ccc(NS(=O)(=O)c5cccc(Cl)c5Cl)c4F)ncnc3s2)c2ccccc12 [Example 83]	10 to 50 nM	500 to 1000 nM	1 to 10 nM	–	−10%
CC1(O)CCN(C(=O)c2cn(-c3nc4c(Nc5c(F)ccc(NS(=O)(=O)c6cccc(Cl)c6Cl)c5F)ncnc4s3)c3ccccc23)CC1 [Example 85]	< 10 nM	< 500 nM	1 to 10 nM	–	8%
O=C(c1cn(-c2nc3c(Nc4c(F)ccc(NS(=O)(=O)c5cccc(Cl)c5Cl)c4F)ncnc3s2)c2ccccc12)N1C2CCC1CC(O)C2 (stereo not drawn) [Example 86]	< 10 nM	< 500 nM	1 to 10 nM	–	4%
CC(C)C(=O)c1cn(-c2nc3c(Nc4c(F)ccc(NS(=O)(=O)c5cccc(Cl)c5Cl)c4F)ncnc3s2)c2ccccc12 [Example 92]	> 50 nM	–	> 10 nM	1000 to 10000 nM	–
O=C(c1cn(-c2nc3c(Nc4c(F)ccc(NS(=O)(=O)c5cccc(Cl)c5Cl)c4F)ncnc3s2)c2cccc(F)c12)N1C2CCC1COC2 [Example 93]	< 10 nM	500 to 1000 nM	< 1 nM	–	3%
CC1(O)CN(C(=O)c2cn(-c3nc4c(Nc5c(F)ccc(NS(=O)(=O)c6cccc(Cl)c6Cl)c5F)ncnc4s3)c3ccccc23)C1 [Example 94]	< 10 nM	< 500 nM	1 to 10 nM	–	−10%
O=C(c1cn(-c2nc3c(Nc4c(F)ccc(NS(=O)(=O)c5cccc(Cl)c5Cl)c4F)ncnc3s2)c2ccccc12)N1CC(O)(C(F)(F)F)C1 [Example 96]	10 to 50 nM	500 to 1000 nM	> 10 nM	–	−1%

Now from value to compound, other results behind:

IC50 (CRAF)	IC50 (pERK, HCT116 cells)	IC50 (BRAF)	IC50 (pERK, HCT116 cells; Homo sapiens, HCT-116)	SMILES	HCT116 pERK (Ymin %) (pERK, HCT116 cells)
< 10 nM	< 500 nM	1 to 10 nM	–	NS(=O)(=O)c1cn(-c2nc3c(Nc4c(F)ccc(NS(=O)(=O)c5cccc(Cl)c5Cl)c4F)ncnc3s2)c2ccccc12 [Example 61]	−13%
10 to 50 nM	< 500 nM	1 to 10 nM	–	CCS(=O)(=O)c1cn(-c2nc3c(Nc4c(F)ccc(NS(=O)(=O)c5cccc(Cl)c5Cl)c4F)ncnc3s2)c2ccccc12 [Example 63]	−5%
10 to 50 nM	500 to 1000 nM	1 to 10 nM	–	O=S(=O)(CC1CCOCC1)c1cn(-c2nc3c(Nc4c(F)ccc(NS(=O)(=O)c5cccc(Cl)c5Cl)c4F)ncnc3s2)c2ccccc12 [Example 65]	−3%
> 50 nM	< 500 nM	1 to 10 nM	–	O=S(=O)(Nc1ccc(F)c(Nc2ncnc3sc(-n4cc(S(=O)(=O)N5C6CCC5COC6)c5ccccc54)nc23)c1F)c1cccc(Cl)c1Cl [Example 67]	0%
10 to 50 nM	500 to 1000 nM	1 to 10 nM	–	CC(C)(O)[C@@H]1CCCN1C(=O)c1cn(-c2nc3c(Nc4c(F)ccc(NS(=O)(=O)c5cccc(Cl)c5Cl)c4F)ncnc3s2)c2ccccc12 [Example 77]	−5%
< 10 nM	–	1 to 10 nM	500 to 1000 nM	COCCOc1ccc2c(ncn2-c2nc3c(Nc4c(F)ccc(NS(=O)(=O)c5cccc(Cl)c5Cl)c4F)ncnc3s2)c1F [Example 79]	–
< 10 nM	< 500 nM	1 to 10 nM	–	O=C(c1cn(-c2nc3c(Nc4c(F)ccc(NS(=O)(=O)c5cccc(Cl)c5Cl)c4F)ncnc3s2)c2ccccc12)N1CC2CC1CO2 (stereo not drawn) [Example 84]	18%
< 10 nM	500 to 1000 nM	1 to 10 nM	–	CC(C)(O)C1CN(C(=O)c2cn(-c3nc4c(Nc5c(F)ccc(NS(=O)(=O)c6cccc(Cl)c6Cl)c5F)ncnc4s3)c3ccccc23)C1 [Example 87]	−8%
> 50 nM	1000 to 10000 nM	1 to 10 nM	–	CC(=O)c1cn(-c2nc3c(Nc4c(F)ccc(NS(=O)(=O)c5cccc(Cl)c5Cl)c4F)ncnc3s2)c2ccccc12 [Example 88]	−8%
> 50 nM	< 500 nM	1 to 10 nM	–	O=C(c1cn(-c2nc3c(Nc4c(F)ccc(NS(=O)(=O)c5cccc(Cl)c5Cl)c4F)ncnc3s2)c2ccccc12)N1CCC2CCCCC2(O)C1 (stereo not drawn) [Example 89]	−16%
< 10 nM	< 500 nM	1 to 10 nM	–	CC(C)(O)[C@@H]1CCN(C(=O)c2cn(-c3nc4c(Nc5c(F)ccc(NS(=O)(=O)c6cccc(Cl)c6Cl)c5F)ncnc4s3)c3ccccc23)C1 [Example 90]	−6%
> 50 nM	–	> 10 nM	1000 to 10000 nM	CCC(=O)c1cn(-c2nc3c(Nc4c(F)ccc(NS(=O)(=O)c5cccc(Cl)c5Cl)c4F)ncnc3s2)c2ccccc12 [Example 91]	–
< 10 nM	< 500 nM	1 to 10 nM	–	CCC1(O)CN(C(=O)c2cn(-c3nc4c(Nc5c(F)ccc(NS(=O)(=O)c6cccc(Cl)c6Cl)c5F)ncnc4s3)c3ccccc23)C1 [Example 95]	−6%
